Experiments:
[1] = target: HCV NS3 protease genotype 3a (3A-1) (Hepatitis C virus genotype 3a, UniProt Q81258); test: HCV NS3 protease time-resolved fluorescence (TRF) assay, genotype 3a; format: biochemical; details: Ki 3a
How it was run: (§1)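 Assay buffer: 50 mM HEPES pH 7.5, 150 mM NaCl, 0.1% PEG 8000, 0.15% Triton X-100. Ten-minute enzyme–inhibitor preincubation; substrate at 25 nM final; 6 h reaction, room temperature; signal/background set at 5-20 by enzyme amount.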

[2] = target: T1, HCV genotype 1b (BK) NS3 modified enzyme with a R155K mutation (Hepatitis C virus genotype 1b, UniProt P26663, R1181K); test: HCV NS3 protease time-resolved fluorescence (TRF) assay, genotype 1b R155K; format: biochemical; details: Ki 1b R155K, genotype 1b (BK) NS3 R155K; single value
T1 construct: HCV genotype 1b (BK) NS3 modified enzyme
How it was run: as §1

| Compound | Ki [1] [nM] | Ki [2] [nM] |
| --- | --- | --- |
| C=C[C@@H]1C[C@]1(NC(=O)[C@@H]1C[C@@H]2CN1C(=O)[C@H](C1CCCC1)NC(=O)O[C@@H]1CCC[C@H]1CC/C=C/Cc1c(nc3ccccc3c1OC(=O)NC(C)C)O2)C(=O)NS(=O)(=O)C1CC1 [Example 93, (3aR,7S,10S,12R,21E,24aS)-7-cyclopentyl-10-({(1R,2S)-1-[(cyclopropylsulfonyl)carbamoyl]-2-ethenylcyclopropyl}carbamoyl)-5,8-dioxo-1,2,3,3a,5,6,7,8,11,12,20,23,24,24a-tetradecahydro-10H-9,12-methanocyclopenta[18,19][1,10,3,6]dioxadiazacyclononadecino[11,12-b]quinolin-19-yl propan-2-ylcarbamate] | 2.8 | 0.26 |
| C=C[C@@H]1C[C@]1(NC(=O)[C@@H]1C[C@@H]2CN1C(=O)[C@H](C(C)(C)C)NC(=O)O[C@@H]1C[C@H]1CCCCCc1c(nc3c(OC)cccc3c1OCCCn1ccnc1)O2)C(=O)NS(=O)(=O)C1(C)CC1 [Example 144, (1aR,5S,8S,10R,22aR)-5-tert-butyl-N-[(1R,2S)-2-ethenyl-1-{[(1-methylcyclopropyl)sulfonyl]carbamoyl}cyclopropyl]-17-[3-(1H-imidazol-1-yl)propoxy]-13-methoxy-3,6-dioxo-1,1a,3,4,5,6,9,10,18,19,20,21,22,22a-tetradecahydro-8H-7,10-methanocyclopropa[18,19][1,10,3,6]dioxadiazacyclononadecino[11,12-b]quinoline-8-carboxamide] | 6.2 | 0.61 |
| C=C[C@@H]1C[C@]1(NC(=O)[C@@H]1C[C@@H]2CN1C(=O)[C@H](C1CCCC1)NC(=O)O[C@@H]1CCC[C@H]1CC/C=C/Cc1c(nc3ccccc3c1OCC(=O)O)O2)C(=O)NS(=O)(=O)C1CC1 [Example 66, {[(3aR,7S,10S,12R,21E,24aS)-7-cyclopentyl-10-({(1R,2S)-1-[(cyclopropylsulfonyl)carbamoyl]-2-ethenylcyclopropyl}carbamoyl)-5,8-dioxo-1,2,3,3a,5,6,7,8,11,12,20,23,24,24a-tetradecahydro-10H-9,12-methanocyclopenta[18,19][1,10,3,6]dioxadiazacyclononadecino[11,12-b]quinolin-19-yl]oxy}acetic acid] | 25 | 0.077 |
| C=C[C@@H]1C[C@]1(NC(=O)[C@@H]1C[C@@H]2CN1C(=O)[C@H](C(C)(C)C)NC(=O)O[C@@H]1C[C@H]1CCCCCc1c(nc3ccccc3c1OCCCNCCc1cccc3ccccc13)O2)C(=O)NS(=O)(=O)C1(C)CC1 [Example 189, (1aR,5S,8S,10R,22aR)-5-tert-butyl-N-[(1R,2S)-2-ethenyl-1-{[(1-methylcyclopropyl)sulfonyl]carbamoyl}cyclopropyl]-17-(3-{[2-(naphthalen-1-yl)ethyl]amino}propoxy)-3,6-dioxo-1,1a,3,4,5,6,9,10,18,19,20, 21,22,22a-tetradecahydro-8H-7,10-methanocyclopropa[18,19][1,10,3,6] dioxadiazacyclononadecino[11,12-b] quinoline-8-carboxamide] | 3.4 | 0.081 |
| C=C[C@@H]1C[C@]1(NC(=O)[C@@H]1C[C@@H]2CN1C(=O)[C@H](C(C)(C)C)NC(=O)O[C@@H]1C[C@H]1CCCCCc1c(nc3cc(F)ccc3c1OCCCN1CCOCC1)O2)C(=O)NS(=O)(=O)C1(C)CC1 [Example 152, (1aR,5S,8S,10R,22aR)-5-tert-butyl-N-[(1R,2S)-2-ethenyl-1-{[(1-methylcyclopropyl)sulfonyl]carbamoyl}cyclopropyl]-14-fluoro-17-[3-(morpholin-4-yl)propoxy]-3,6-dioxo-1,1a,3,4,5,6,9, 10,18,19,20,21,22,22a-tetradecahydro-8H-7,10-methanocyclopropa[18,19] [1,10,3,6]dioxadiaza cyclononadecino[11,12-b]quinoline-8-carboxamide] | 1.5 | 0.25 |
| C=C[C@@H]1C[C@]1(NC(=O)[C@@H]1C[C@@H]2CN1C(=O)[C@H](C(C)(C)C)NC(=O)O[C@@H]1C[C@H]1CCCCCc1c(nc3ccccc3c1OCC1CCN(CC)CC1)O2)C(=O)NS(=O)(=O)C1(C)CC1 [Example 227, (1aR,5S,8S,10R,22aR)-5-tert-butyl-N-[(1R,2S)-2-ethenyl-1-{[(1-methylcyclopropyl)sulfonyl]carbamoyl}cyclopropyl]-17-[(1-ethylpiperidin-4-yl)methoxy]-3,6-dioxo-1,1a,3,4,5,6,9,10,18,19,20,21,22,22a-tetradecahydro-8H-7,10-methanocyclopropa[18,19][1,10,3,6] dioxadiazacyclononadecino[11,12-b]quinoline-8-carboxamide] | 0.36 | 0.095 |
| C=C[C@@H]1C[C@]1(NC(=O)[C@@H]1C[C@@H]2CN1C(=O)[C@H](C(C)(C)C)NC(=O)O[C@@H]1CCC[C@H]1CCCCCc1c(nc3ccccc3c1OCCN1CCOCC1)O2)C(=O)NS(=O)(=O)N1CCOCC1 [Example 112, (3aR,7S,10S,12R,24aR)-7-tert-butyl-N-{(1R,2S)-2-ethenyl-1-[(morpholin-4-ylsulfonyl)carbamoyl]cylcopropyl}-19-[2-(morpholin-4-yl)ethoxy]-5,8-dioxo-1,2,3,3a,5,6,7,8,11,12,20,21,22,23,24,24a-hexadecahydro-10H-9,12-methanocyclopenta[18,19] [1,10,3,6] dioxadiazacyclononadecino [11,12-b]quinoline-10-carboxamide] | 620 | 24 |
| C=C[C@@H]1C[C@]1(NC(=O)[C@@H]1C[C@@H]2CN1C(=O)[C@H](C(C)(C)C)NC(=O)O[C@@H]1C[C@H]1CCCCCc1c(nc3ccccc3c1OCCCN(C)Cc1n[nH]c(=O)[nH]1)O2)C(=O)NS(=O)(=O)C1(C)CC1 [Example 199, (1aR,5S,8S,10R,22aR)-5-tert-butyl-N-[(1R,2S)-2-ethenyl-1-{[(1-methylcyclopropyl)sulfonyl]carbamoyl}cyclopropyl]-17-(3-{methyl[(5-oxo-4,5-dihydro-1H-1,2,4-triazol-3-yl)methyl]amino}propoxy)-3,6-dioxo-1,1a,3,4,5,6,9,10,18,19,20,21, 22,22a-tetradecahydro-8H-7,10-methanocyclopropa[18,19][1,10,3,6] dioxadiazacyclononadecino[11,12-b] quinoline-8-carboxamide] | 0.74 | 0.057 |
| C=C[C@@H]1C[C@]1(NC(=O)[C@@H]1C[C@@H]2CN1C(=O)[C@H](C1CCCC1)NC(=O)O[C@@H]1CCC[C@H]1CC/C=C/Cc1c(nc3ccccc3c1OCCCO)O2)C(=O)NS(=O)(=O)C1CC1 [Example 72, (3aR,7S,10S,12R,21E,24aS)-7-cyclopentyl-N-{(1R,2S)-1-[(cyclopropylsulfonyl)carbamoyl]-2-ethenylcyclopropyl}-19-(3-hydroxypropoxy)-5,8-dioxo-1,2,3,3a,5,6,7,8,11,12,20,23,24,24a-tetradecahydro-10H-9,12-methanocyclopenta[18,19][1,10,3,6]dioxadiazacyclononadecino[11,12-b]quinoline-10-carboxamide] | 1.1 | < 0.016 |

From patent US9328138B2 (priority 2011, dated 2016)
